Assay results published in patent publication US20240284792A1, “ORGANIC COMPOUND, LIGHT-EMITTING DEVICE, DISPLAY APPARATUS, AND ELECTRONIC DEVICE” (SEMICONDUCTOR ENERGY LABORATORY CO., LTD., priority 2023, published 2024).
In brackets after ≈: the same amount, converted by molar mass.

Experiment: Solubility test (water solubility) by LC-MS analysis
Type: physicochemical
Description: In the LC-MS analysis, liquid chromatography (LC) separation was carried out with ACQUITY UPLC manufactured by Waters Corporation, and MS analysis (mass spectrometry) was carried out with Xevo G2 Tof MS manufactured by Waters Corporation. Acquity UPLC BEH C8 (2.1×100 mm, 1.7 μm) was used as a column for the LC separation. Acetonitrile was used for Mobile Phase A and a 0.1% aqueous solution of formic acid was used for Mobile Phase B. The injection amount of the sample was 5.0 μL. Note that in the analysis, the wavelength of a photodiode array detector was set to 330 nm±1 nm.
In a 5-mL sample bottle, 1 mg of SFPy-hpp was put and 2 mL of N,N-dimethylformamide was added thereto. This mixture was irradiated with ultrasonic waves for five minutes. After it was confirmed that the solid was completely dissolved, this solution was diluted by 2.5 times with acetonitrile, whereby the concentration of the solution was adjusted to 200 mg/L. This solution was diluted with acetonitrile, whereby a solution with a concentration of 4 mg/L, a solution with a concentration of 2 mg/L, and a solution with a concentration of 0.2 mg/L were prepared. The prepared solutions were subjected to LC-MS analysis, and the peak area values derived from SFPy-hpp, which were obtained at the respective solution concentrations, were used to form calibration curves.
Next, the water solubility of SFPy-hpp was measured.
In a 5-mL sample bottle, 1 mg of SFPy-hpp was put and 1 mL of water was added thereto. This mixture was irradiated with ultrasonic waves for five minutes. This mixture was filtered through a membrane filter to remove the solid. The obtained solution was subjected to LC-MS analysis.

SMILES: c1cc(-c2ccc3c(c2)C2(c4ccccc4-c4ccccc42)c2ccccc2-3)nc(N2CCCN3CCCN=C32)c1 [SFPy-hpp, 1-[6-(9,9′-spirobi[9H-fluoren]-2-yl)pyridin-2-yl]-1,3,4,6,7,8-hexahydro-2H-pyrimido[1,2-a]pyrimidine]
- solubility in 1 mL of water (1 mg compound in 1 mL water, ultrasonic waves five minutes, membrane filtered, LC-MS with calibration curve): 0.00029 mg
- solubility at 5 min (thermodynamic from solid, water, from calibration curve and LC-MS signal intensity, read-out: weight fraction of the water solubility): 0.29 µg/mL (≈ 0.546 µM)
- water solubility (in words) (water, conclusion from LC-MS solubility test): extremely low water solubility
